Experimental data from patent publication US10208015B2, “Aryl-triazolyl pyridines as pest control agents” (BAYER ANIMAL HEALTH GMBH, priority 2014, dated 2019).

How the values were obtained:
Lucilia cuprina = Lucilia cuprina test; type: in vivo; settings: application rate 100 ppm, L1 larvae, after 2 days
Description: (§1) • Solvent: dimethyl sulphoxide
(§2) To produce a suitable preparation of active compound, 10 mg of active compound are mixed with 0.5 ml of dimethyl sulphoxide, and the concentrate is diluted with water to the desired concentration.
About 20 L1 larvae of the Australian sheep blowfly (Lucilia cuprina) are transferred into a test vessel containing minced horsemeat and the active compound preparation of the desired concentration.
After 2 days, the kill in % is determined. 100% means that all the larvae have been killed; 0% means that no larvae have been killed.

Phaedon cochleariae = Phaedon cochleariae spray test; type: in vivo; settings: application rate 100 g/ha, after 7 days
Description: Phaedon Cochleariae—Spray Test
(§3) • Solvent: 78.0 parts by weight of acetone • 1.5 parts by weight of dimethylformamide • Emulsifier: alkylaryl polyglycol ether
(§4) To produce a suitable preparation of active compound, 1 part by weight of active compound is dissolved using the stated parts by weight of solvent and made up with water containing an emulsifier concentration of 1000 ppm until the desired concentration is attained. To produce further test concentrations, the preparation is diluted with emulsifier-containing water.
After 7 days, the efficacy in % is determined. 100% means that all the beetle larvae have been killed; 0% means that no beetle larvae have been killed.

Musca domestica = Musca domestica test; type: in vivo; settings: application rate 100 ppm, adult houseflies, after 2 days
Description: as §1, §2
Vessels containing a sponge treated with sugar solution and the active compound preparation of the desired concentration are populated with 10 adult houseflies (Musca domestica).
After 2 days, the kill in % is determined. 100% means that all of the flies have been killed; 0% means that none of the flies have been killed.

[1] = logP by HPLC on reversed-phase column (C18), EEC Directive 79/831 Annex V.A8; type: physicochemical; settings: HPLC, C18, acetonitrile (0.1% formic acid)/water (0.09% formic acid) gradient
Spodoptera frugiperda = Spodoptera frugiperda spray test; type: in vivo; settings: application rate 100 g/ha, after 7 days
Description: Spodoptera Frugiperda—Spray Test
as §3, §4
Leaf discs of maize (Zea mays) are sprayed with an active compound preparation of the desired concentration and, after drying, populated with caterpillars of the armyworm (Spodopterafrugiperda).
After 7 days, the efficacy in % is determined. 100% means that all the caterpillars have been killed; 0% means that no caterpillars have been killed.

Ctenocephalides felis [2] = assay: Ctenocephalides felis oral test; type: in vivo; settings: application rate 100 ppm in citrated cattle blood, after 2 days
Source text: Ctenocephalides felis—Oral Test • Solvent: dimethyl sulphoxide […] Dilution with citrated cattle blood gives the desired concentration. About 20 unfed adult cat fleas (Ctenocephalides felis) are placed into a chamber which is closed at the top and bottom with gauze. A metal cylinder whose bottom end is closed with parafilm is placed onto the chamber. The cylinder contains the blood/active compound preparation, which can be imbibed by the fleas through the parafilm membrane.

Boophilus microplus = Boophilus microplus injection test; type: in vivo; settings: application rate 20 μg/animal, assessed after 7 days
Description: Boophilus microplus—Injection Test • Solvent: dimethyl sulphoxide […] The animals are transferred into dishes and kept in a climate-controlled room. Efficacy is assessed after 7 days by laying of fertile eggs. Eggs which are not visibly fertile are stored in a climate-controlled cabinet until the larvae hatch after about 42 days.

[3] = test system: Boophilus microplus Parkhurst strain, SP-resistant; assay: Boophilus microplus dip test; type: in vivo; settings: application rate 100 ppm, assessed after 7 days
Description: Boophilus microplus—Dip Test
• Test animals: cattle ticks (Boophilus microplus) Parkhurst strain, SP-resistant • Solvent: dimethyl sulphoxide
10 mg of active compound are dissolved in 0.5 ml of dimethyl sulphoxide. To produce a suitable formulation, the active compound solution is diluted with water to the concentration desired in each case.
This active compound preparation is pipetted into tubes. 8-10 engorged adult female cattle ticks (Boophilus microplus) are transferred into a further tube with holes. The tube is immersed into the active compound preparation, and all the ticks are completely wetted. After the liquid has run out, the ticks are transferred on filter discs into plastic dishes and stored in a climate-controlled room.
Efficacy is assessed after 7 days by laying of fertile eggs. Eggs which are not visibly fertile are stored in a climate-controlled cabinet until the larvae hatch after about 42 days. An efficacy of 100% means that none of the ticks has laid any fertile eggs; 0% means that all the eggs are fertile.

Tetranychus urticae = Tetranychus urticae spray test, OP-resistant; type: in vivo; settings: after 6 days
Description: Tetranychus Urticae—Spray Test, OP-Resistant
as §3
To produce further test concentrations, the preparation is diluted with emulsifier-containing water.
After 6 days, the efficacy in % is determined. 100% means that all the spider mites have been killed; 0% means that none of the spider mites have been killed.

Ctenocephalides felis [4] = assay: Ctenocephalides felis in vitro contact test with adult cat fleas; type: in vivo; settings: application rate 500 g/ha (5 μg/cm^2), after 48 h
Description: Ctenocephalides felis—In Vitro Contact Tests with Adult Cat Fleas
(§5) For the coating of the test tubes, 9 mg of active compound are first dissolved in 1 ml of acetone p.a. and then diluted to the desired concentration with acetone p.a. 250 μl of the solution are distributed homogeneously on the inner walls and the base of a 25 ml test tube by turning and rocking on an orbital shaker (rocking rotation at 30 rpm for 2 h). With 900 ppm active compound solution and internal surface 44.7 cm^2, given homogeneous distribution, an area-based dose of 5 μg/cm^2 is achieved.
After the solvent has evaporated off, the tubes are populated with 5-10 adult cat fleas (Ctenocephalides felis), sealed with a perforated plastic lid and incubated in a horizontal position at room temperature and ambient humidity. After 48 h, efficacy is determined. To this end, the test tubes are stood upright and the fleas are knocked to the base of the tube. Fleas which remain motionless at the base or move in an uncoordinated manner are considered to be dead or moribund.
100% efficacy means that all the fleas were dead or moribund. 0% efficacy means that no fleas were harmed.

Rhipicephalus sanguineus = Rhipicephalus sanguineus in vitro contact test with adult brown dog ticks; type: in vivo; settings: application rate 500 g/ha (5 μg/cm^2), after 48 h
Description: Rhipicephalus sanguineus—In Vitro Contact Tests with Adult Brown Dog Ticks
as §5
After the solvent has evaporated off, the tubes are populated with 5-10 adult dog ticks (Rhipicephalus sanguineus), sealed with a perforated plastic lid and incubated in a horizontal position in the dark at room temperature and ambient humidity. After 48 h, efficacy is determined. To this end, the ticks are knocked to the floor of the tube and incubated on a hotplate at 45-50° C. for not more than 5 min. Ticks which remain motionless on the floor or move in such an uncoordinated manner that they are unable to deliberately avoid the heat by climbing upwards are considered to be dead or moribund.
An efficacy of 100% means that all the ticks were dead or moribund. 0% efficacy means that none of the ticks had been harmed.

Myzus persicae = Myzus persicae spray test; type: in vivo; settings: application rate 100 g/ha, after 6 days
Description: Myzus Persicae—Spray Test […] To produce further test concentrations, the preparation is diluted with emulsifier-containing water. Discs of Chinese cabbage leaves (Brassica pekinensis) infested by all stages of the green peach aphid (Myzus persicae) are sprayed with an active compound preparation of the desired concentration.

SMILES	efficacy (kill in %) (Lucilia cuprina) [%]	efficacy in % (Phaedon cochleariae) [%]	efficacy (kill in %) (Musca domestica) [%]	logP [1]	efficacy in % (Spodoptera frugiperda) [%]	efficacy (kill in %) (Ctenocephalides felis [2]) [%]	efficacy (laying of fertile eggs) (Boophilus microplus) [%]	efficacy (laying of fertile eggs) [3] [%]	efficacy in % (Tetranychus urticae; application rate 100 g/ha) [%]	efficacy (fleas dead or moribund) (Ctenocephalides felis [4]) [%]	efficacy in % (Tetranychus urticae; application rate 20 g/ha) [%]	efficacy (ticks dead or moribund) (Rhipicephalus sanguineus) [%]	efficacy in % (Myzus persicae) [%]
COc1ncc(-c2cn(-c3c(Cl)cc(C(F)(C(F)(F)F)C(F)(F)F)cc3Cl)nn2)cc1C(=O)NC1(C#N)CC1 [Example 4]	100	100	100	4.3	100	100	100						
Cc1ncc(-c2cn(-c3c(Cl)cc(C(F)(C(F)(F)F)C(F)(F)F)cc3Cl)nn2)cc1C(=O)NC1(C#N)CC1 [Example 6]	100	100	100	3.5	100	100	100	100	100	100			
COc1ncc(-c2cn(-c3c(C)cc(C(F)(C(F)(F)F)C(F)(F)F)cc3C)nn2)cc1C(=O)NC1(C#N)CC1 [Example 7]	100	100		4.2	100	100	100						
COc1ncc(-c2cn(-c3c(C)cc(C(F)(C(F)(F)F)C(F)(F)F)cc3C)nn2)cc1C(=O)NC1CC1 [Example 11]	100	100	100	4.3	100	100	100				90		
Cc1cc(C(F)(C(F)(F)F)C(F)(F)F)cc(C(F)(F)F)c1-n1cc(-c2cnc(Cl)c(C(=O)NC3(C#N)CC3)c2)nn1 [Example 14]	90	100	100	3.9	100	100	100	100	100	80		100	
N#CC1(NC(=O)c2cc(-c3cn(-c4c(Cl)cc(C(F)(C(F)(F)F)C(F)(F)F)cc4C(F)(F)F)nn3)cnc2Cl)CC1 [Example 17]	100	100	100	3.9		100	100	100	100	100			
CCc1cc(C(F)(C(F)(F)F)C(F)(F)F)cc(C)c1-n1cc(-c2cnc(Cl)c(C(=O)N(C)C3CC3)c2)nn1 [Example 19]	100		80	4.6		100	100	100					
CCc1cc(C(F)(C(F)(F)F)C(F)(F)F)cc(C)c1-n1cc(-c2cnc(Cl)c(C(=O)NC3CC3)c2)nn1 [Example 20]	100			4.1		100	100	100					
Cc1cc(C(F)(C(F)(F)F)C(F)(F)F)cc(Br)c1-n1cc(-c2cnc(Cl)c(C(=O)N(C)C3CC3)c2)nn1 [Example 21]	100		100	4.4		100	100	100					
Cc1cc(C(F)(C(F)(F)F)C(F)(F)F)cc(Br)c1-n1cc(-c2cnc(Cl)c(C(=O)NC3CC3)c2)nn1 [Example 22]	100		100	3.9		100	100	100					
CCNC(=O)c1cc(-c2cn(-c3c(C)cc(C(F)(C(F)(F)F)C(F)(F)F)cc3CC)nn2)cnc1Cl [Example 25]	100		80	4.1		100	100	100					
CCNC(=O)c1cc(-c2cn(-c3c(C)cc(C(F)(C(F)(F)F)C(F)(F)F)cc3Br)nn2)cnc1Cl [Example 27]	100		100	3.9		100	100	100					
O=C(NC1CC1)c1cc(-c2cn(-c3c(Cl)cc(C(F)(C(F)(F)F)C(F)(F)F)cc3OC(F)(F)F)nn2)cnc1Cl [Example 33]	100		100	4.1		100	100	100					
N#CC1(NC(=O)c2cc(-c3cn(-c4c(Cl)cc(C(F)(C(F)(F)F)C(F)(F)F)cc4OC(F)(F)F)nn3)cnc2Cl)CC1 [Example 34]	100	100	100	4.0		100	100		100				
CN(C(=O)c1cc(-c2cn(-c3c(Cl)cc(C(F)(C(F)(F)F)C(F)(F)F)cc3OC(F)(F)F)nn2)cnc1Cl)C1CC1 [Example 35]	100	100	100	4.6	100	100	100		100				90
